According to patent publication US7138361B2, “Herbicidal heterocycles” (E. I. du Pont de Nemours and Company, priority 2000, dated 2006):

Tests used:
Assay type in all cases: in vivo
Nightshade = assay: Test C preemergence; conditions: Rate 250 g/ha, visual evaluation after 12 to 14 days
Sunflower = assay: Test C preemergence; conditions: Rate 125 g/ha, scale 0 to 100, 0 no effect, 100 complete control
[1] = system: cocklebur (Xanthium strumarium); assay: Test C preemergence
How it was run: (§1)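 Herbicidal effect is a visual 0–100 score (100 = complete control) assigned versus untreated plants, 12 to 14 days after spraying in the greenhouse. Test compounds were applied in a non-phytotoxic, surfactant-containing solvent.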

[2] = system: woolly cupgrass (Eriochloa villosa); assay: Test C preemergence; conditions: for Plant response rating (0 to 100), Cupgrass, Woolly: Rate 250 g/ha, visual evaluation after 12 to 14 days
How it was run: as §1

soybean (Glycine max) = assay: Test C preemergence; conditions: for Plant response rating (0 to 100), Soybean: Rate 250 g/ha, visual evaluation after 12 to 14 days
How it was run: as §1

kochia (Kochia scoparia) = assay: Test C preemergence; conditions: for Plant response rating (0 to 100), Kochia: Rate 250 g/ha, visual evaluation after 12 to 14 days
How it was run: as §1

[3] = system: bermudagrass (Cynodon dactylon); assay: Test C preemergence; conditions: for Plant response rating (0 to 100 where 0 is no effect and 100 is complete control), Bermudagrass: Rate 250 g/ha, visual evaluation after 12 to 14 days
How it was run: as §1

[4] = system: giant foxtail (Setaria faberii); assay: Test C preemergence; conditions: for Plant response rating (0 to 100), Foxtail, Giant: Rate 250 g/ha, visual evaluation after 12 to 14 days
How it was run: as §1

[5] = system: crabgrass (Digitaria sanguinalis); assay: Test C preemergence; conditions: for Plant response rating (0 to 100), Crabgrass: Rate 250 g/ha, visual evaluation after 12 to 14 days
How it was run: as §1

[6] = system: pigweed (Amaranthus retroflexus); assay: Test C preemergence; conditions: for Plant response rating (0 to 100), Pigweed: Rate 250 g/ha, visual evaluation after 12 to 14 days
How it was run: as §1

[7] = system: Surinam grass (Brachiaria decumbens); assay: Test C preemergence; conditions: for Plant response rating (0 to 100), Surinam grass: Rate 250 g/ha, visual evaluation after 12 to 14 days
How it was run: as §1

[8] = system: cocklebur (Xanthium strumarium); assay: Test B preemergence; conditions: scale 0 to 100, 0 no effect, 100 complete control
How it was run: (§2)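 Greenhouse test: chemicals are formulated in a surfactant-containing non-phytotoxic solvent and applied either preemergence to planted seeds or postemergence to plants 2 to 18 cm tall. Response is rated visually versus controls after 13 to 15 days, 0 meaning no effect and 100 complete control.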

[9] = system: velvetleaf (Abutilon theophrasti); assay: Test B preemergence; conditions: Preemergence, Rate 500 g/ha; scale 0 to 100, 0 no effect, 100 complete control
How it was run: as §2

[10] = system: barnyardgrass (Echinochloa crus-galli); assay: Test B preemergence; conditions: scale 0 to 100, 0 no effect, 100 complete control
How it was run: as §2

[11] = system: morning glory (Ipomoea hederacea); assay: Test B preemergence; conditions: Preemergence, Rate 500 g/ha; scale 0 to 100, 0 no effect, 100 complete control
How it was run: as §2

[12] = system: lambsquarters (Chenopodium album); assay: Test B preemergence; conditions: scale 0 to 100, 0 no effect, 100 complete control
How it was run: as §2

corn (Zea mays) = assay: Test B preemergence; conditions: scale 0 to 100, 0 no effect, 100 complete control
How it was run: as §2

[13] = system: giant foxtail (Setaria faberii); assay: Test B preemergence; conditions: scale 0 to 100, 0 no effect, 100 complete control
How it was run: as §2

[14] = system: crabgrass (Digitaria sanguinalis); assay: Test B preemergence; conditions: scale 0 to 100, 0 no effect, 100 complete control
How it was run: as §2

rice (Oryza saliva) = assay: Test B preemergence; conditions: Preemergence, Rate 500 g/ha; scale 0 to 100, 0 no effect, 100 complete control
How it was run: as §2

[15] = system: pigweed (Amaranthus retroflexus); assay: Test B preemergence; conditions: Preemergence, Rate 500 g/ha; scale 0 to 100, 0 no effect, 100 complete control
How it was run: as §2

[16] = system: Surinam grass (Brachiaria decumbens); assay: Test B preemergence; conditions: scale 0 to 100, 0 no effect, 100 complete control
How it was run: as §2

[17] = Preemergence, Rate 500 g/ha, scale 0 to 100
[18] = Rate 62 g/ha, scale 0 to 100, 0 no effect, 100 complete control
[19] = preemergence, Rate 125 g/ha, scale 0 to 100, 0 no effect, 100 complete control

O=C1C(n2ccc(C3CCC3)n2)OCN1c1cccc(C(F)(F)F)c1 (stereo not drawn) [Compound 39]
20: Plant response rating, Cupgrass, Woolly [2, 19] | Plant response rating, Surinam grass ([16]; Preemergence, Rate 500 g/ha) | Plant response rating, Surinam grass ([16]; preemergence, Rate 125 g/ha)
30: Plant response rating, Foxtail, Giant ([13]; preemergence, Rate 125 g/ha)
90: Plant response rating (0 to 100), Cupgrass, Woolly ([2]; preemergence) | Plant response rating, Kochia (kochia (Kochia scoparia); [17]) | Plant response rating, Bermudagrass [3, 18] | Plant response rating, Bermudagrass [3, 19] | Plant response rating, Crabgrass [5, 18]
80: Plant response rating, Surinam grass [7, 17]
70: Plant response rating (0 to 100), Kochia (kochia (Kochia scoparia); preemergence)
0: Plant response rating (0 to 100), Nightshade (Nightshade) | Plant response rating, Sunflower (Sunflower) | Plant response rating, Cocklebur [1, 17] | Plant response rating, Cocklebur [1, 18] | Plant response rating, Cupgrass, Woolly [2, 18] | Plant response rating, Soybean (soybean (Glycine max); [17]) | Plant response rating, Soybean (soybean (Glycine max); [18]) | Plant response rating (0 to 100), Soybean (soybean (Glycine max); preemergence) | Plant response rating, Soybean (soybean (Glycine max); [19]) | Plant response rating, Kochia (kochia (Kochia scoparia); [18]) | Plant response rating, Foxtail, Giant [4, 18] | Plant response rating (0 to 100), Foxtail, Giant ([4]; preemergence) | Plant response rating, Foxtail, Giant [4, 19] | Plant response rating, Pigweed [6, 18] | Plant response rating (0 to 100), Pigweed ([6]; preemergence) | Plant response rating, Pigweed [6, 19] | Plant response rating, Surinam grass [7, 18] | Plant response rating (0 to 100), Surinam grass ([7]; preemergence) | Plant response rating, Surinam grass [7, 19] | Plant response rating, Cocklebur ([8]; Preemergence, Rate 500 g/ha) | Plant response rating, Cocklebur ([8]; preemergence, Rate 125 g/ha) | Plant response rating, Velvetleaf [9] | Plant response rating, Morningglory [11] | Plant response rating, Corn (corn (Zea mays); Preemergence, Rate 500 g/ha) | Plant response rating, Corn (corn (Zea mays); preemergence, Rate 125 g/ha) | Plant response rating, Crabgrass ([14]; preemergence, Rate 125 g/ha) | Plant response rating, Rice (rice (Oryza saliva))
50: Plant response rating, Kochia (kochia (Kochia scoparia); [19]) | Plant response rating, Barnyardgrass ([10]; preemergence, Rate 125 g/ha)
100: Plant response rating, Cupgrass, Woolly [2, 17] | Plant response rating, Bermudagrass [3, 17] | Plant response rating (0 to 100 where 0 is no effect and 100 is complete control), Bermudagrass ([3]; preemergence) | Plant response rating, Foxtail, Giant [4, 17] | Plant response rating, Crabgrass [5, 17] | Plant response rating (0 to 100), Crabgrass ([5]; preemergence) | Plant response rating, Crabgrass [5, 19] | Plant response rating, Pigweed [6, 17] | Plant response rating, Barnyardgrass ([10]; Preemergence, Rate 500 g/ha) | Plant response rating, Lambsquarters ([12]; Preemergence, Rate 500 g/ha) | Plant response rating, Lambsquarters ([12]; preemergence, Rate 125 g/ha) | Plant response rating, Foxtail, Giant ([13]; Preemergence, Rate 500 g/ha) | Plant response rating, Crabgrass ([14]; Preemergence, Rate 500 g/ha) | Plant response rating, Pigweed [15]

CCC(C)c1ccn(C2SCN(c3cccc(OC(F)(F)F)c3)C2=O)n1 (stereo not drawn) [Compound 40]
90: Plant response rating (0 to 100), Cupgrass, Woolly ([2]; preemergence) | Plant response rating, Cupgrass, Woolly [2, 19] | Plant response rating, Kochia (kochia (Kochia scoparia); [19]) | Plant response rating, Foxtail, Giant [4, 18] | Plant response rating (0 to 100), Surinam grass ([7]; preemergence) | Plant response rating, Surinam grass ([16]; Preemergence, Rate 500 g/ha)
60: Plant response rating, Cocklebur [1, 17] | Plant response rating, Cupgrass, Woolly [2, 18] | Plant response rating, Kochia (kochia (Kochia scoparia); [18]) | Plant response rating, Morningglory [11] | Plant response rating, Corn (corn (Zea mays); Preemergence, Rate 500 g/ha) | Plant response rating, Surinam grass ([16]; preemergence, Rate 125 g/ha)
80: Plant response rating, Bermudagrass [3, 18] | Plant response rating, Surinam grass [7, 19]
40: Plant response rating (0 to 100), Nightshade (Nightshade) | Plant response rating, Soybean (soybean (Glycine max); [17]) | Plant response rating (0 to 100), Soybean (soybean (Glycine max); preemergence)
100: Plant response rating, Cupgrass, Woolly [2, 17] | Plant response rating, Kochia (kochia (Kochia scoparia); [17]) | Plant response rating (0 to 100), Kochia (kochia (Kochia scoparia); preemergence) | Plant response rating, Bermudagrass [3, 17] | Plant response rating (0 to 100 where 0 is no effect and 100 is complete control), Bermudagrass ([3]; preemergence) | Plant response rating, Bermudagrass [3, 19] | Plant response rating, Foxtail, Giant [4, 17] | Plant response rating (0 to 100), Foxtail, Giant ([4]; preemergence) | Plant response rating, Crabgrass [5, 17] | Plant response rating, Crabgrass [5, 18] | Plant response rating (0 to 100), Crabgrass ([5]; preemergence) | Plant response rating, Crabgrass [5, 19] | Plant response rating, Pigweed [6, 17] | Plant response rating, Pigweed [6, 19] | Plant response rating, Surinam grass [7, 17] | Plant response rating, Barnyardgrass ([10]; Preemergence, Rate 500 g/ha) | Plant response rating, Barnyardgrass ([10]; preemergence, Rate 125 g/ha) | Plant response rating, Lambsquarters ([12]; Preemergence, Rate 500 g/ha) | Plant response rating, Lambsquarters ([12]; preemergence, Rate 125 g/ha) | Plant response rating, Foxtail, Giant ([13]; Preemergence, Rate 500 g/ha) | Plant response rating, Crabgrass ([14]; Preemergence, Rate 500 g/ha) | Plant response rating, Crabgrass ([14]; preemergence, Rate 125 g/ha) | Plant response rating, Rice (rice (Oryza saliva)) | Plant response rating, Pigweed [15]
0: Plant response rating, Sunflower (Sunflower) | Plant response rating, Foxtail, Giant [4, 19] | Plant response rating, Pigweed [6, 18] | Plant response rating (0 to 100), Pigweed ([6]; preemergence) | Plant response rating, Surinam grass [7, 18] | Plant response rating, Cocklebur ([8]; Preemergence, Rate 500 g/ha) | Plant response rating, Cocklebur ([8]; preemergence, Rate 125 g/ha) | Plant response rating, Velvetleaf [9] | Plant response rating, Corn (corn (Zea mays); preemergence, Rate 125 g/ha)
20: Plant response rating, Cocklebur [1, 18] | Plant response rating, Cocklebur [1, 19] | Plant response rating, Soybean (soybean (Glycine max); [19])
70: Plant response rating, Foxtail, Giant ([13]; preemergence, Rate 125 g/ha)
